Measured values as given in US8883827B2, “Azole derivatives as WTN pathway inhibitors” (Oslo University Hospital HF, priority 2009, dated 2014).
Where two headings read alike, the source gives them in different places.

Columns and labels:
IGF-1R(h) = molecular target: T1, IGF-1R(h) (Homo sapiens, UniProt P08069); assay: Kinase screen; assay type: biochemical; details: 0.1% DMSO control = 100%
T1 construct: purchased Millipore (KinaseProfiler service)

[1] = Compound concentration in plasma and tumors of xenograft mice; assay type: in vivo; details: C.B-Igh-1b/IcrTac-Prkdc scid (CB17/SCID), mouse, intraperitoneal, 24 h after last injection, day 29
Protocol: Daily injections (200 μl, i.p.) followed (two day injection intermissions after every fifth injection day) until experiment end (29 days). At the termination day, 24 hours after the last injection, blood was collected after cardiac puncture and the tumors were removed and weighed. The compound concentration in plasma and tumors was determined using an on-line and off-line Solid Phase Extraction-Capillary Liquid Chromatography (SPE-CapLC) instrumentation coupled to a Time of Flight (TOF) mass spectrometer, as previously described (Wilson, S. R. et al., J. Sep. Sci. 28: 1751-1758, 2005). A Zorbax SB C18 5 μm 150×0.3 mm column (Agilent, […], Calif., USA) was used for separation, and a Knauer K-2600 UV detector was used as a complimentary detector.

SAPK2a(h) = molecular target: T2, SAPK2a(h) (Homo sapiens, UniProt Q16539); assay: Kinase screen; assay type: biochemical; details: 0.1% DMSO control = 100%
T2 construct: purchased Millipore (KinaseProfiler Service)

VHR(h) = molecular target: T3, VHR(h) (Homo sapiens, UniProt P51452); assay: Phosphatase screen; assay type: biochemical; details: 0.1% DMSO control = 100%
T3 construct: purchased Millipore (KinaseProfiler service)

MEK1(h) = molecular target: T4, MEK1(h) (Homo sapiens, UniProt Q02750); assay: Kinase screen; assay type: biochemical; details: 0.1% DMSO control = 100%
T4 construct: purchased Millipore (KinaseProfiler service)

Pim-1(h) = molecular target: T5, Pim-1(h) (Homo sapiens, UniProt P11309); assay: Kinase screen; assay type: biochemical; details: 0.1% DMSO control = 100%
T5 construct: purchased Millipore (KinaseProfiler service)

TNF-α pathway = assay: NF-κB-Luciferase reporter in HEK293 cells with rTNF-α; assay type: cell-based; details: 1 or 10 μM, 24 h, 10 ng/ml rTNF-α
Excerpt: 2) HEK293 cells transiently transfected with a NF-κB-Luciferase reporter (NF-κB-Luc—purchased from Promega).

[2] = molecular target: T6, PI3 Kinase (p110b/p85a)(h) (Homo sapiens, UniProt P42338); assay: Kinase screen; assay type: biochemical; details: 0.1% DMSO control = 100%
T6 construct: purchased Millipore (KinaseProfiler service)

PAK2(h) = molecular target: T7, PAK2(h) (Homo sapiens, UniProt Q13177); assay: Kinase screen; assay type: biochemical; details: 0.1% DMSO control = 100%
T7 construct: purchased Millipore (KinaseProfiler service)

SHP-1(h) = molecular target: T8, SHP-1(h) (Homo sapiens, UniProt P29350); assay: Phosphatase screen; assay type: biochemical; details: 0.1% DMSO control = 100%
T8 construct: purchased Millipore (KinaseProfiler service)

TMDP(h) = molecular target: T9, TMDP(h) (Homo sapiens, UniProt Q9UII6); assay: Phosphatase screen; assay type: biochemical; details: 0.1% DMSO control = 100%
T9 construct: purchased Millipore (KinaseProfiler service)

NEK2(h) = molecular target: T10, NEK2(h) (Homo sapiens, UniProt P51955); assay: Kinase screen; assay type: biochemical; details: 0.1% DMSO control = 100%
T10 construct: purchased Millipore (KinaseProfiler service)

MAPK2(h) = molecular target: T11, MAPK2(h) (Homo sapiens, UniProt P28482); assay: Kinase screen; assay type: biochemical; details: 0.1% DMSO control = 100%
T11 construct: purchased Millipore (KinaseProfiler service)

SRPK1(h) = molecular target: T12, SRPK1(h) (Homo sapiens, UniProt Q96SB4); assay: Kinase screen; assay type: biochemical; details: 0.1% DMSO control = 100%
T12 construct: purchased Millipore (KinaseProfiler Service)

IKKα(h) = molecular target: T13, IKKα(h) (Homo sapiens, UniProt O15111); assay: Kinase screen; assay type: biochemical; details: 0.1% DMSO control = 100%
T13 construct: purchased Millipore (KinaseProfiler service)

MKK7β(h) = molecular target: T14, MKK7β(h) (Homo sapiens, UniProt O14733); assay: Kinase screen; assay type: biochemical; details: 0.1% DMSO control = 100%
T14 construct: purchased Millipore (KinaseProfiler service)

[3] = system: Wnt signaling pathway in SW480 cells; assay: ST-d1EGFP reporter in SW480 cells (flow cytometry); assay type: cell-based; details: 25 µM compound, 72 h
Protocol: 3) the SW480 colorectal cell line, which has an aberrant Wnt activity caused by spontaneous mutations in the APC locus, transfected with the construct ST-d1EGFP. In this cell line, d1EGFP reporter is activated without using Wnt-3a CM, i.e. the cell line has permanently “switched on” Wnt signaling pathway.
100000 ST-d1EGFP SW480 and SW480 CMV-d1EGFP (Clontech) SW480 cells were plated on 12-well plates and 1, 10 or 25 μM of compound No. 1 (or 0.01%, 0.1% or 0.25% DMSO—controls) was added to the cells the following day. After a 72 hour incubation, samples were trypsinized and analysed for d1EGFP expression on a PAS-PPCS flowcytometer and cell sorter (Partec).

eEF-2K(h) = molecular target: T15, eEF-2K(h) (Homo sapiens, UniProt O00418); assay: Kinase screen; assay type: biochemical; details: 0.1% DMSO control = 100%
T15 construct: purchased Millipore (KinaseProfiler service)

β-catenin = assay: Western blot and immunocytochemistry of β-catenin in SW480 cells; assay type: cell-based
Protocol: The effect of compound No. 1 on the presence of β-catenin in the nucleus or in the cytoplasm of colorectal cancer SW480 cells was investigated. SW480 cells contain activating mutations in the APC gene, leading to elevated levels of nuclear β-catenin and aberrant canonical Wnt signaling. A Western blot analysis was carried out using cell lysates from compound-treated SW480 cells and an antibody against the active form of β-catenin (non-phosphorylated N-terminal—ABC). In parallel, antibodies were used against total β-catenin (β-catenin), or β-catenin phosphorylated at the N-terminal (-β-catenin) which detects a degradable form of β-catenin.
SW480 cells were seeded and treated with compound No. 1 as described in Example 25. Cell lysates were immunoblotted using monoclonal active-β-catenin (ABC—Millipore), monoclonal β-catenin (β-catenin—BD Transduction Laboratories™), phospho-β-catenin (pβ-catenin—Cell Signaling Technology) and actin (Sigma). Primary antibodies were visualized with secondary HRP conjugated antibodies (Santa Cruz Biotechnology) and enhanced chemiluminescent substrate (Pierce® ECL Western Blotting Substrate, Thermo Scientific).
For immunocytochemical experiments, SW480 cells were seeded and treated as described in Example 24. After 72 hours, cells were fixed in 4% PFA in PBS for 10 minutes. Immunostaining was performed as described in standard protocols. Primary antibody (monoclonal β-catenin, BD Transduction Laboratories™) and secondary antibody (Alexa Fluor® 594, Invitrogen) were diluted 1:1000. The samples were imaged by using a Zeiss Axiovert 200M Fluorescence/Live cell Imaging Microscope with X40 magnification and the same exposure times. Cells were stained with DAPI (4′,6-diamidino-2-phenylindole) according to standard protocols.

Fyn(h) = molecular target: T16, Fyn(h) (Homo sapiens, UniProt P06241); assay: Kinase screen; assay type: biochemical; details: 0.1% DMSO control = 100%
T16 construct: purchased Millipore (KinaseProfiler service)

T8 sequence (P29350 whole entry): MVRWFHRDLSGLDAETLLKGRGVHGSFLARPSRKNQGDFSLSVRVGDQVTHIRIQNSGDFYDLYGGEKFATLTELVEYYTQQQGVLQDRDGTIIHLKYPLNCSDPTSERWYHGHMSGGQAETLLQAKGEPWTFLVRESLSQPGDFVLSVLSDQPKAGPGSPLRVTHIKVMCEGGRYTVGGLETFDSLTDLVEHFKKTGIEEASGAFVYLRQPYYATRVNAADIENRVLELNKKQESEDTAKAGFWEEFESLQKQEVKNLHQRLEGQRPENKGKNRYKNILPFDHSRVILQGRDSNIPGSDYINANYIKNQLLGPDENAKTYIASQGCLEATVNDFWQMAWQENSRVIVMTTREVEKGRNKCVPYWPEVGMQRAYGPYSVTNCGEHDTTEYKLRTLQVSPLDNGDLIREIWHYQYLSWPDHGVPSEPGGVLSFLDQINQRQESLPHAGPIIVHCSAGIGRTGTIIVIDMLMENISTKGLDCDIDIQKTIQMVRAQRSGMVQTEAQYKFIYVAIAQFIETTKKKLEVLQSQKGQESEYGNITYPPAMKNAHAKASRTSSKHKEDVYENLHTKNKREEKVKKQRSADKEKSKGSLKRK
T12 sequence (Q96SB4 whole entry): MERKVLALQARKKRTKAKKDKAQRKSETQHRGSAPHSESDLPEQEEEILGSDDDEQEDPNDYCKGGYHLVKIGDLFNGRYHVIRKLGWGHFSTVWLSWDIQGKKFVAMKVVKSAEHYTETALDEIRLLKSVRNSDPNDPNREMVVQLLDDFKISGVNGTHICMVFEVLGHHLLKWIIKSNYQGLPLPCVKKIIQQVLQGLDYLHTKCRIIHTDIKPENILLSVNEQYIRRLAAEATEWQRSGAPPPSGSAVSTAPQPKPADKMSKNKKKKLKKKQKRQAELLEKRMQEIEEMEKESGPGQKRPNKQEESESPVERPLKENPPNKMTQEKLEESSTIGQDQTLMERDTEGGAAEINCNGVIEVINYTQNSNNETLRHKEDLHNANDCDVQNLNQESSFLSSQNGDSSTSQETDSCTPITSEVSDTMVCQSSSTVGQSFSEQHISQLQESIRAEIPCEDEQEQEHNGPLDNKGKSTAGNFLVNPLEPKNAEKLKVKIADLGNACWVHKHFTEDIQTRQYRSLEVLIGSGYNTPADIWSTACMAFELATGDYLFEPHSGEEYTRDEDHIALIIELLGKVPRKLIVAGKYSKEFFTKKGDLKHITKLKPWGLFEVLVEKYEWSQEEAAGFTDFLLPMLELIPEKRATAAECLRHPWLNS
T11 sequence (P28482 whole entry): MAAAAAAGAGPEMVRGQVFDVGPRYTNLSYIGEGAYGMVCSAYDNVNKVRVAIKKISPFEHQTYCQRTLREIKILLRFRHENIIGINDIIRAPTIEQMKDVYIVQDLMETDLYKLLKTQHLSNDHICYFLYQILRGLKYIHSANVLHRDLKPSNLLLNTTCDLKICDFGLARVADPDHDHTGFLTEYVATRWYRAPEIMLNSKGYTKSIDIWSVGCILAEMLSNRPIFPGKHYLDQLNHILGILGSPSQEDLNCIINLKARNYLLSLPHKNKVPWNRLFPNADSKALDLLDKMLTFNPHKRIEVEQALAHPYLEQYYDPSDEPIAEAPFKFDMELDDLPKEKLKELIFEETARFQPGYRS
T14 sequence (O14733 whole entry): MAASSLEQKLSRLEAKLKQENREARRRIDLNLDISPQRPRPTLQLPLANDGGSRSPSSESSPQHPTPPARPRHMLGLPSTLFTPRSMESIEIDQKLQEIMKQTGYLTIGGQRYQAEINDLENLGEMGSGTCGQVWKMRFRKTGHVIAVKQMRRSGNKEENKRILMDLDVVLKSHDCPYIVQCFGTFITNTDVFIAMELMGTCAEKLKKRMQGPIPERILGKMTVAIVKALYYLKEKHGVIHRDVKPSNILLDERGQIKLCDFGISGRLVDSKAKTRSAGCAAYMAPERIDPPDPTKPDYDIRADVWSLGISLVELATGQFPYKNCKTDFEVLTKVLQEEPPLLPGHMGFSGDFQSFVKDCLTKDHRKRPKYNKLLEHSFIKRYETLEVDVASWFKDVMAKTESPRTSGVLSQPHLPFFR
T7 sequence (Q13177 whole entry): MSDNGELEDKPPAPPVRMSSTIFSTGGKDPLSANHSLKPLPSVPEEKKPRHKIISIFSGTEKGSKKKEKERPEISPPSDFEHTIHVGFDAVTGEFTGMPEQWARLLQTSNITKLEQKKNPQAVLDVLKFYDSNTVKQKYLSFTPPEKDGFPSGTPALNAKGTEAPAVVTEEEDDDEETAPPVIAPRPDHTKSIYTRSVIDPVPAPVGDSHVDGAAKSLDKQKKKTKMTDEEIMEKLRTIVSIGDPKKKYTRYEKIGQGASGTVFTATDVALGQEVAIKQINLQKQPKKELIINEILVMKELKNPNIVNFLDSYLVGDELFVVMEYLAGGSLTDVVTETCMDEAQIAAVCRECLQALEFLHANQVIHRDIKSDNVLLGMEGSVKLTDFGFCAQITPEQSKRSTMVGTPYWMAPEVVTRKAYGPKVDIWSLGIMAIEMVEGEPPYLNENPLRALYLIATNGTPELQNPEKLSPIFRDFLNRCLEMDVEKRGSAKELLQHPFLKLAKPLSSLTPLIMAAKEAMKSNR
T4 sequence (Q02750 whole entry): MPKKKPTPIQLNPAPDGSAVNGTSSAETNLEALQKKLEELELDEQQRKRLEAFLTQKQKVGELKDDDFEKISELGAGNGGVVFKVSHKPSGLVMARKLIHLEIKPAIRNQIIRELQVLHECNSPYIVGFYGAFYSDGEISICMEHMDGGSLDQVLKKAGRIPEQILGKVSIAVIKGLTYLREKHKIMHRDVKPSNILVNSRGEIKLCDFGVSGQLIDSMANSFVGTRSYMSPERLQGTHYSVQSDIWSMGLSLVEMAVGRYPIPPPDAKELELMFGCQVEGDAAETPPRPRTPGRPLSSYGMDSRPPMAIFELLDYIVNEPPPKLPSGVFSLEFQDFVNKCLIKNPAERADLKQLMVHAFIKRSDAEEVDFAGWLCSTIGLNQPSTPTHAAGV
T6 sequence (P42338 whole entry): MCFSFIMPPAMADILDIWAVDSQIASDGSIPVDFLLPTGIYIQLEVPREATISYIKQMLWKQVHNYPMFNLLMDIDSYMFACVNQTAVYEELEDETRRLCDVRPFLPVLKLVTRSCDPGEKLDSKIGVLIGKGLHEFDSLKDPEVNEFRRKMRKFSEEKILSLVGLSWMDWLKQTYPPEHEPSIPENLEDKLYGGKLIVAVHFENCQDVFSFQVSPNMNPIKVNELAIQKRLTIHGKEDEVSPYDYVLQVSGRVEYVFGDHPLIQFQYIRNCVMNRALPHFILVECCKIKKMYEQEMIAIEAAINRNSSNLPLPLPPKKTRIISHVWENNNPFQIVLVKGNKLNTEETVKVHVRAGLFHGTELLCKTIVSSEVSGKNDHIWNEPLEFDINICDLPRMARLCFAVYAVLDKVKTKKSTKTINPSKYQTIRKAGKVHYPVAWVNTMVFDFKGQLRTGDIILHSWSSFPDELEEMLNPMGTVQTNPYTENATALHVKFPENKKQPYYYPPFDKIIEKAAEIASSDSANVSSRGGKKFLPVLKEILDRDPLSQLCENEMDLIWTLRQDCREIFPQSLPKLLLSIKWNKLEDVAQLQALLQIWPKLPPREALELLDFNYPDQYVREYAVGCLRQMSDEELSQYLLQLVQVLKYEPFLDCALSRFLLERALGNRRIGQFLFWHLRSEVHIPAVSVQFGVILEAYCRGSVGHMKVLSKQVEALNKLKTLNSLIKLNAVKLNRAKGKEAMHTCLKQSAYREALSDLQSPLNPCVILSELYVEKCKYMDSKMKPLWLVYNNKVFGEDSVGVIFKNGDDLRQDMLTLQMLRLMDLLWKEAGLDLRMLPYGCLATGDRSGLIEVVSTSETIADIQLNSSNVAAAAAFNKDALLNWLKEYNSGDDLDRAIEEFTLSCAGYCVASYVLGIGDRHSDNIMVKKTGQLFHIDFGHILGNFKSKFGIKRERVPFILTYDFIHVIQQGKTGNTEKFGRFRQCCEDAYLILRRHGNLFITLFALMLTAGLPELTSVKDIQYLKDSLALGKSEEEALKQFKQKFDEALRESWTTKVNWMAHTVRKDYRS
T6 sequence (P27986 whole entry partner): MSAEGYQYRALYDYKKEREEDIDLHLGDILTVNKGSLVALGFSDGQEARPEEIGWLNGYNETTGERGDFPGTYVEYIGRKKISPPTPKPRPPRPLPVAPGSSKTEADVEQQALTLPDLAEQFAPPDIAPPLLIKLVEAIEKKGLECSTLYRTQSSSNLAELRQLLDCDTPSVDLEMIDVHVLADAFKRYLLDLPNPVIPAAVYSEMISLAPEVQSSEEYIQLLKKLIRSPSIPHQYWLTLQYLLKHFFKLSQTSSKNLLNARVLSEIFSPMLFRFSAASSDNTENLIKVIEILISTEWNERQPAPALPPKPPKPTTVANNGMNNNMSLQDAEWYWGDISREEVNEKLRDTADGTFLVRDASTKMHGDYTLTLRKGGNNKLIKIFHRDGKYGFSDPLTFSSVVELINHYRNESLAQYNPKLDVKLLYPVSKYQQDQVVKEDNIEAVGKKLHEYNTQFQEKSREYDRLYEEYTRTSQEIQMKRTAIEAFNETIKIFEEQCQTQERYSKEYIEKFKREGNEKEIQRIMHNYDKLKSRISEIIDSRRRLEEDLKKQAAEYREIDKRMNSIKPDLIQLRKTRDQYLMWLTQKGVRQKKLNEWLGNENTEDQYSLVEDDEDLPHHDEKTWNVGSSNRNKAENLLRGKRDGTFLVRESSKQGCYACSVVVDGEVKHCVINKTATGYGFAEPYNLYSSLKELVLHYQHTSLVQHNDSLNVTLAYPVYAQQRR
T3 sequence (P51452 whole entry): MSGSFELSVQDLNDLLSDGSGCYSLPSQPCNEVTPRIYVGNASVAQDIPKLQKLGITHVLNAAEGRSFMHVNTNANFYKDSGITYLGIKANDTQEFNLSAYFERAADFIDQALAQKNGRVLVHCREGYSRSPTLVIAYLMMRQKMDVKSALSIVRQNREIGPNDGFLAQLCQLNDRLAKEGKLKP

Work on `COc1ccc(-n2c(SCc3nc(-c4ccc(C)cc4)no3)nnc2-c2ccncc2)cc1` [Compound 1] yielded an activity at 10 µM (IGF-1R(h)) of 149%, a concentration at 24 h after the last injection ([1]; plasma, 150 mg/kg, 150 mg/kg group, read-out: concentration in plasma) of 1300 ng/mL and a concentration at 24 h after the last injection ([1]; plasma, 300 mg/kg, 300 mg/kg group, read-out: concentration in plasma) of 1300 ng/mL. It also gave a concentration at 24 h after the last injection ([1]; tumor, 150 mg/kg, 150 mg/kg cohort, read-out: concentration in tumors, mean) of 11800 ng/g, a concentration at 24 h after the last injection ([1]; tumor, 150 mg/kg, 150 mg/kg cohort, read-out: concentration in tumors, range) of 1900 to 32900 ng/g and a concentration at 24 h after the last injection ([1]; tumor, 300 mg/kg, 300 mg/kg cohort, read-out: concentration in tumors, mean) of 2400 ng/g. For the same molecule, the concentration at 24 h after the last injection ([1]; tumor, 300 mg/kg, 300 mg/kg cohort, read-out: concentration in tumors, range) was 900 to 4900 ng/g, the activity at 10 µM (SAPK2a(h)) was 106% and the activity at 10 µM (VHR(h)) was 103%. For the same molecule, the activity at 10 µM (MEK1(h)) was 108%, the activity at 10 µM (Pim-1(h)) was 91% and the “effect against the TNF-α pathway” value (TNF-α pathway) was “no substantial activating or inhibitory effect”. For the same molecule, the activity at 10 µM [2] was 94%, the activity at 10 µM (PAK2(h)) was 99% and the activity at 10 µM (SHP-1(h)) was 102%. For the same molecule, the activity at 10 µM (TMDP(h)) was 97%, the activity at 10 µM (NEK2(h)) was 94% and the activity at 10 µM (MAPK2(h)) was 105%. The activity at 10 µM (SRPK1(h)) was 96%, the activity at 10 µM (IKKα(h)) was 109% and the activity at 10 µM (MKK7β(h)) was 90%. For the same molecule, the “reduction of ratio of activity of ST-d1EGFP to CMV-d1EGFP” value [3] was 63.5%, the activity at 10 µM (eEF-2K(h)) was 117% and the “active β-catenin (non-phosphorylated, ABC) in Western blot” value (β-catenin; SW480, 1 μM, 72 hours) was “barely detectable”. For the same molecule, the “overall levels of total β-catenin (Western blot)” value (β-catenin; SW480, 72-hour exposure) was “reduced”, the “nuclear total β-catenin (immunofluorescence)” value (β-catenin; SW480, 72-hour incubation) was “Reduction” and the “level of degradable pβ-catenin (Western blot)” value (β-catenin; SW480, 24 hours after adding compound) was “temporarily increased”. The “active β-catenin (ABC) level (Western blot)” value (β-catenin; SW480, 72 h, all concentrations) was “even stronger reduction” and the activity at 10 µM (Fyn(h)) was 83%.
